Among the data in PubChem BioAssay (NCI) are GI50 and TGI values, retold here.

Holding throughout (assay): growth of human tumour cells (NCI), 48 h
For experiment [1], the system named is IGROV1 ovarian.
In experiment [2] the test system is BT-549 breast.
Experiment [3] concerns PC-3 prostate.
The subject of experiment [4] is MCF7 breast.
The subject of experiment [5] is NCI-H226 lung.
Experiment [6] concerns SN12C renal.
In experiment [7] the test system is MOLT-4 leukemia.
Experiment [8] relates to RXF 393 renal.
The test system of experiment [9] is HOP-92 NSCLC.
The subject of experiment [10] is SNB-19 CNS.

Values joined by “and” are separate entries in the source; they are usually repeats but may differ in a detail not shown here. Equal values may be shown once.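 Values below derive from 48-hour exposures of cells grown in 96-well plates, with endpoints linearly interpolated between the two concentrations bracketing the appropriate inhibition level. GI50 marks 50% less growth. TGI: total growth inhibition.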

Turning to `C=C(C)[C@@H]1CC[C@]2(C(=O)O)CC[C@]3(C)[C@H](CC[C@@H]4[C@@]5(C)C[C@@H](CC#Cc6ccc(Br)cc6)C(=O)C(C)(C)[C@@H]5CC[C@]43C)[C@@H]12`, the GI50 was 4.07 µM in [1]; 21 µM in experiment [2]; 3.31 µM in experiment [3]; 4.94 µM in [4]; 24.2 µM in experiment [5]; 2.99 µM in experiment [6]. For the same compound, the GI50 is 4.44 µM in experiment [7], 5.5 µM in [8], 17 µM in [9] and 6.19 µM in experiment [10]. Moreover, the TGI is 24.9 µM in experiment [1]; 55 µM in [2]; 15.2 µM in [3]; > 100 µM in experiment [4]; > 100 µM in experiment [5]; 9.25 µM in experiment [6]. Also, the TGI is > 100 µM in experiment [7], 21.8 µM in experiment [8], 36.4 µM in experiment [9] and 64.8 µM in [10].
As for `C/C1=C\CC[C@@]2(C)O[C@@H]2C[C@@H]2[C@H](C/C(C)=C/CC1)OC(=O)C21CCN=N1` (some centres not stated), the GI50 in [1], in [2], in experiment [3], in [4], in [6] and in experiment [7] was > 100 µM throughout. Moreover, the GI50 in [8] and in experiment [10] was > 100 µM throughout. The TGI was > 100 µM in experiment [1]; > 100 µM in experiment [2]; > 100 µM in [3]; > 100 µM in experiment [4]; > 100 µM in experiment [5]; 75 µM and > 100 µM in [6]. Also, the TGI was 75 µM and > 100 µM in experiment [7]; > 100 µM in experiment [8]; > 75 µM in experiment [9]; > 100 µM in experiment [10].
For `Cc1ccc(NSc2ccccc2[N+](=O)[O-])cc1`, the GI50 in experiment [1] was 1.25 µM; in experiment [2] it was 2.21 µM; in [3], 1.29 µM; in experiment [4], 0.133 µM; in experiment [5], 4.04 µM; in [6] it was 1.3 µM. For the same compound, the GI50 in experiment [7] is 0.208 µM; in [8], 0.868 µM; in [9] it was 0.502 µM; in experiment [10], 1.22 µM. Besides, the TGI in [1] turned out to be 28.2 µM; in experiment [2] it was 23 µM; in [3], 16.6 µM; in experiment [4] it was 16.2 µM; in [5], 20.8 µM; in experiment [6], 21.1 µM. Also, the TGI in experiment [7] was > 62.7 µM; in experiment [8], 5.27 µM; in experiment [9], 13.7 µM; in experiment [10], 19.6 µM.
Take `O=C(N/N=c1/ccoc2cccnc12)N1CCN(c2ncccn2)CC1`: the GI50 in experiment [1] is < 0.01 µM; in experiment [2] it was 0.321 µM; in [3] it was < 0.01 µM; in experiment [4] it was < 0.01 µM; in [6], 1.57 µM; in experiment [7], < 0.0129 µM. In addition, the GI50 in experiment [8] is 1.09 µM; in [9] it was 0.017 µM; in experiment [10], 0.804 µM. For the same compound, the TGI in [1] was 7.98 µM; in [2] it was 3.37 µM; in experiment [3] it was 6.38 µM; in experiment [4], 11.9 µM; in experiment [5] it was 2.56 µM; in experiment [6], 14.8 µM. Also, the TGI in [7] was found to be 8.06 µM; in experiment [8] it was 4.03 µM; in [9], 2.68 µM; in experiment [10], 16.8 µM.
For the compound `O=C(NCC(=O)N1CC[C@H](NC2CCC(O)(c3ccc(-c4ncccn4)cn3)CC2)C1)c1cccc(C(F)(F)F)c1` (some centres not stated), the GI50 in experiment [1] is > 100 µM; in experiment [2], 34.9 µM; in [3], 51.6 µM; in experiment [4], 41.8 µM; in experiment [5], > 100 µM; in [6] it was > 100 µM. In addition, the GI50 in experiment [7] was 39.8 µM; in experiment [8], 61.7 µM; in experiment [9], 30.4 µM; in [10] it was > 100 µM. Further, the TGI in experiment [1], in [2], in experiment [3], in experiment [4], in experiment [5] and in experiment [6] was > 100 µM in each case. Also, the TGI in experiment [7], in experiment [8], in experiment [9] and in [10] was > 100 µM each time.
`O=C(Nc1cccc([N+](=O)[O-])c1)c1ccc2ccccc2c1O`: the GI50 is 13.8 µM in experiment [1]; 1.75 µM in experiment [2]; 3.87 µM in experiment [3]; 2.88 µM in experiment [4]; 7.57 µM in [5]; 12 µM in experiment [6]. The GI50 in experiment [7] was 3.4 µM; in experiment [8] it was 3.37 µM; in experiment [9] it was 1.77 µM; in experiment [10], 4.05 µM. For the same compound, the TGI in experiment [1] is 46 µM; in experiment [2] it was 5.53 µM; in experiment [3], > 80.7 µM; in experiment [4], > 43.2 µM; in experiment [5] it was > 100 µM; in experiment [6] it was > 93 µM. The TGI in experiment [7] is > 46.5 µM; in experiment [8], > 35.4 µM; in [9], 6.71 µM; in experiment [10], > 85.4 µM.
Take `Cn1ccnc1C(=O)/C=C/c1ccc(C(=O)Nc2ccccc2O)cc1`: the GI50 in experiment [1] is 1.97 µM; in [2] it was 1.8 µM; in experiment [3] it was 1.89 µM; in experiment [4], 1.77 µM; in experiment [5], 2.35 µM; in experiment [6], 2.79 µM. Besides, the GI50 in experiment [7] is 2.38 µM; in experiment [8], 1.62 µM; in experiment [9], 2.11 µM; in experiment [10], 2.6 µM. Besides, the TGI was 4.88 µM in experiment [1]; 5.05 µM in [2]; 4.8 µM in experiment [3]; 6.51 µM in experiment [4]; 7.8 µM in experiment [5]; 10.1 µM in [6]. In addition, the TGI in experiment [7] turned out to be 8.18 µM; in experiment [8] it was 3.41 µM; in experiment [9], 6.68 µM; in experiment [10], 11.5 µM.
For `CC(=O)Nc1ccc2c(c1)C(=O)c1cccc(F)c1-2`, the TGI in [1] is > 100 µM; in experiment [2], > 100 µM; in experiment [3], > 100 µM; in experiment [4], > 63.9 µM; in experiment [5] it was > 100 µM; in [6] it was > 100 µM. Also, the TGI in experiment [7] is > 100 µM; in [8], > 91.2 µM; in experiment [9], 97.7 µM; in experiment [10], > 100 µM.
